{"source": "patent US6828450B2", "about": "“Triptycene analogs” (Kansas State University Research Foundation, priority 2000, dated 2004)", "key": {"[1]": {"system": "HL-60-S cells", "assay": "HL-60-S cell viability assay (MTS:PMS)", "format": "cell-based, human", "from_the_text": "(§1) The MDR HL-60-RV and HL-60-R8 cells were developed in Melvin S. Center's laboratory (Kansas State University) and similarly maintained in RPMI 1640 medium in the absence of drugs (Marsh W, et al, Cancer Res 46: 4053-4057, 1986; McGrath T et al, and Center M S: Biochem Biophys Res Commun 145: 1171-1176, 1987; Marsh W and Center M S: Cancer Res 47: 5080-5086, 1987; McGrath T, et al, Biochem Pharmacol 38: 3611-3619, 1989; Marquardt D, et al, Cancer Res 50: 1426-1430, 1990; Marquardt D and Center M S: J Natl Cancer Inst 83: 1089-1109, 1991; Krishnamachary N and Center M S; Cancer Res 53: 3658-3661, 1993). Every 4 weeks, these HL-60-RV and HL-60-R8 sublines were exposed to 41 nM DAU for 48 h to stabilize their MDR phenotype. This concentration of DAU, which is not cytotoxic to MDR HL-60 sublines, was removed from the culture medium at least 48 h before experimentation. […] RFs were determined by dividing the IC50 of the MDR cells by that of the sensitive WT parent cell line."}, "[2]": {"system": "L1210 cells", "assay": "DNA cleavage (intact chromatin precipitation) in L1210 cells", "format": "cell-based, murine", "protocol": "FIG. 19. Comparison of the concentration-dependent effects of novel TT analogs and known DNA-damaging anticancer drugs on DNA cleavage in L1210 cells in vitro. […] After lysing the cells in HLB containing 0.2% Triton X-100, the detergent-soluble DNA fragments present in the supernatants and the intact chromatin DNA remaining in the pellets were separated by centrifugation and their radioactivity estimated by LSC. Results are expressed as [cpm in supernatant/cpm in supernatant+pellet]×100 at 24 h. For untreated controls (5.3±0.6% DNA fragmentation; striped area), the supernatant is 741±79 cpm and the pellet is 13,293±1,446 cpm.\nFIG. 20. Comparison of the abilities of novel TT analogs to induce DNA cleavage in L1210 cells in vitro. Cells containing prelabeled DNA were incubated at 37° C. for 24 h in the presence or absence (control) of 7 μM concentrations of the indicated compounds. The protocol of the experiment and the determination of the results were identical to those of FIG. 12.\nFIG. 22. Irreversibility of the effects of novel TT analogs and known DNA-damaging anticancer drugs on DNA cleavage in L1210 cells in vitro. Cells containing prelabeled DNA were incubated at 37° C. for various periods of time in the presence or absence (control) of 10 μM TT1 or TT2 and 1.6 μM DAU or CPT. The protocol of the experiment and the determination of the results at 24 h were identical to those of FIG. 19, except that the drugs were either maintained in the medium for the whole 24-h period of incubation (open) or removed after the first 3 (striped) and 8 h (closed). After spinning and washing the appropriate samples to remove the drugs, cells were resuspended in 0.5 ml of fresh medium to complete the 24-h period of incubation in the absence of drugs. Vehicle-treated controls were similarly spun and washed at 3 and 8 h. Bars: means±SD (n=3).\nDrug-induced DNA cleavage was determined by intact chromatin precipitation, using L1210, HL-60-S, HL-60-RV and HL-60-R8 cells which were prelabeled with 1 μCi of ^3H-thymidine for 2 h at 37° C., washed with 3×1 ml of ice-cold PBS, collected by centrifugation, and resuspended in fresh FCS-containing RPMI 1640 medium at a density of about 1×10^6 cells/0.5 ml for L1210 and 0.5×10^6 cells/0.5 ml for HL cells. Except when otherwise specified, such cells containing prelabeled DNA were then exposed for 24 h to TTs and drugs known to induce DNA fragmentation. After centrifugation at 200×g for 10 min to discard the drugs and wash the cells, the intact cell pellets were lysed for 30 min in 0.5 ml of HLB, centrifuged at 12,000×g for 30 min to collect the supernatants, and resuspended in 0.5 ml of HLB. After another similar centrifugation, the radioactivities in the pooled supernatants (detergent-soluble low molecular weight DNA fragments) and the pellet (intact chromatin DNA) were determined by LSC: % DNA fragmentation=[cpm in supernatant/cpm in supernatant+pellet]×100. Before being counted in 6 ml of Bio-Safe NA, the intact pelleted chromatin was incubated for 2 h at 60° C. in the presence of 0.6 ml of NCS tissue solubilizer (Amersham)."}, "[3]": {"system": "HL-60-RV cells", "assay": "DNA cleavage in HL-60-RV cells", "format": "cell-based, human", "conditions": "24 h", "protocol": "FIG. 23. Comparison of the concentration-dependent inductions of DNA cleavage by DAU (open symbols in A) and TT2 (closed symbols in B) at 24 h in HL-60-S (circles), HL-60-RV (squares) and HL-60-R8 (triangles) cells containing ^3H-prelabeled DNA in vitro. Results are expressed as [cpm in supernatant/cpm in supernatant+pellet]×100 at 24 h. For untreated controls (14.7±1.7% DNA fragmentation, striped areas), the supernatant (DNA fragments) is 12,815±1,358 cpm and the pellet (intact DNA) is 74,406±9,078 cpm.\nas §1, with “phenotype.” for “phenotype. This concentration of DAU, which is not cytotoxic to MDR HL-60 sublines, was removed from the culture medium at least 48 h before experimentation.”, “line. […]” for “line.”"}}, "note": "“And” between values parts separate entries of the source, which are not always exact repeats. Equal values may be shown once. Read-outs that look alike come from different tables or passages of the source."}
{"smiles": "COC1=CC(=O)C2=C(C1=O)C1C3=C(C(=O)C=CC3=O)C2c2ccccc21", "note": "(centres unmarked) [TT2, 2-Methoxy-9,10-dihydro-9,10-[1′,2′]benzenoanthracene-1,4,5,8-tetraone]", "values": [{"measurement": "times TT2 inhibits viability less effectively than DAU", "setting": "[1]; HL-60-S", "value": 15, "unit": "times"}, {"measurement": "IC50", "setting": "[1]; HL-60-S, HL-60-RV and HL-60-R8, day 4, read-out: IC50 values, decrease of cell viability, range over the three lines", "value": "230 to 350", "unit": "nM"}, {"measurement": "IC50", "setting": "[1]; day 2, read-out: IC50, decrease of HL-60-S cell viability", "value": 1300, "unit": "nM"}, {"measurement": "IC50", "setting": "[1]; day 4, read-out: IC50, decrease of HL-60-S cell viability", "value": 230, "unit": "nM"}, {"measurement": "DNA fragmentation at 24 h after short exposure", "setting": "[2]; 10 μM, drug removed after 3 and 8 h", "value": "58-67%"}, {"measurement": "DNA cleavage (% DNA fragmentation)", "setting": "[2]; 10 μM, whole 24 h", "value": "61% and 63%"}, {"measurement": "concentration at which induction of DNA cleavage peaks", "setting": "[2]; DNA cleavage at 24 h, internucleosomal fragmentation at 48-72 h", "value": "4 to 10", "unit": "µM"}, {"measurement": "times higher TT2 than DAU concentrations needed for the same peak of DNA cleavage", "setting": "[2]; L1210, 24 h", "value": "about 6 times"}, {"measurement": "reduction of the peak of maximal DNA cleavage relative to HL-60-S cells", "setting": "[3]", "value": 39, "unit": "%"}]}
{"smiles": "COc1cccc2c1C(=O)c1c(O)c3c(c(O)c1C2=O)C[C@@](O)(C(C)=O)C[C@@H]3O[C@H]1C[C@H](N)[C@H](O)[C@H](C)O1", "note": "[DAU, daunomycin, reference compound]", "values": [{"measurement": "IC50", "setting": "[1]; Homo sapiens, 48 h, read-out: IC50, decrease of HL-60-S cell viability", "value": 80, "unit": "nM"}, {"measurement": "IC50", "setting": "[1]; Homo sapiens, 96 h, read-out: IC50, decrease of HL-60-S cell viability", "value": 15, "unit": "nM"}, {"measurement": "DNA cleavage (% DNA fragmentation)", "setting": "[2]; 1.6 μM, 24 h", "value": 45, "unit": "%"}, {"measurement": "DNA fragmentation at 24 h, drug maintained or removed", "setting": "[2]; 1.6 μM, maintained or removed after 3 or 8 h", "value": "33-41%"}, {"measurement": "reduction of the peak of maximal DNA cleavage relative to HL-60-S cells", "setting": "[3]", "value": 79, "unit": "%"}]}
